Assay [1] deals with T1, hRIPK1 (aa 1-375) fusion protein (Homo sapiens, UniProt Q13546).
T1 construct: hRIPK1 (aa 1-375) fusion protein
T1 sequence (Q13546 1-375): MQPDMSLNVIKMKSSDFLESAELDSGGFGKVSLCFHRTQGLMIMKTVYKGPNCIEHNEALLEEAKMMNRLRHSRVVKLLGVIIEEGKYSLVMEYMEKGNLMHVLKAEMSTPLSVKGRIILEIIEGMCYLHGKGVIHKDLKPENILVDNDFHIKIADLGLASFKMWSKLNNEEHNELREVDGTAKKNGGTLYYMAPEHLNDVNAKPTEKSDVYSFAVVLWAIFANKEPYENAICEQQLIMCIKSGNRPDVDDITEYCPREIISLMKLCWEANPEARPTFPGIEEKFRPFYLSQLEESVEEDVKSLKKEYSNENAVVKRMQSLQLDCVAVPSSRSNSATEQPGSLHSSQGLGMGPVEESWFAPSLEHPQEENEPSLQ
The assay can be described thus: ADP-Glo kinase assay: catalytic activity of RIPK1 (autophosphorylation, conversion of ATP to ADP). The class given is biochemical. In a few lines:
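hRIPK1 (aa 1-375) fusion protein (3.6 μg/ml final) was preincubated 30 min at rt with compound (33300-1.69 nM, 1% DMSO), then 50 μM ATP was added for 240 min at rt. ADP from autophosphorylation was measured by ADP-Glo luminescence and curves fitted by nonlinear regression.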
For orientation: ADP-Glo turns the ADP formed in a reaction into a luminescent signal.

A further assay has as its system U937 cells. The assay can be described thus: Cellular assay in U937 cells: activity of RIPK1 inhibitors on TNFα/zVAD.fmk-induced cell death (necroptosis), CellTiter 96 AQueous (MTS) readout. In kind it is cell-based. As to conditions: Homo sapiens, U-937. In short, it runs like this: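 Necroptosis was measured by viable-cell MTS reduction (4 h, absorbance 490 nm) after overnight (18–24 h) 37° C culture. Cell suspensions of U937 cells carried TNFα (100 ng/ml) plus zVAD.fmk (50 μM) before compound was added. A 10-point curve (10 μM–0.26 nM or 1 μM–0.07 nM) was run in duplicate, normalised to the control lacking TNFα/zVAD.fmk.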

Broadly, the IC50 is the concentration that gives 50% inhibition. Turning to `Cc1cc(C[C@H]2CC[C@H](C(=O)N3OCC[C@H]3c3cncc(F)c3)CC2)cn2ncnc12` [compound 336, trans-[(3S)-3-(5-fluoropyridin-3-yl)-1,2-oxazolidin-2-yl]-[4-[(8-methyl-[1,2,4]triazolo[1,5-a]pyridin-6-yl)methyl]cyclohexyl]methanone], the figures for the IC50 (in assay [1]; in the assay on U937 cells) were 17 nM and 10 nM, respectively.
For `COCCOc1cnc2ccn(C[C@H]3CC[C@H](C(=O)N4OCC[C@H]4c4cc(F)cc(C#N)c4)CC3)c2c1` [compound 149, trans-3-fluoro-5-[(3S)-2-[4-[[6-(2-methoxyethoxy)pyrrolo[3,2-b]pyridin-1-yl]methyl]cyclohexanecarbonyl]isoxazolidin-3-yl]benzonitrile] the same measures were 9 nM and 8 nM.
Take `Cc1nc2c(C)cc(C[C@H]3CC[C@@](C)(C(=O)N4OCC[C@H]4c4cnc(C)c(F)c4)CC3)cn2n1` [compound 402]: the values for the IC50 (in assay [1]; in the assay on U937 cells) were 2000 nM and 1130 nM, respectively.
As for `Cc1nc2cc(F)ccc2n1C[C@H]1CC[C@H](C(=O)N2OCC[C@H]2c2cc(F)cc(C#N)c2)CC1` [compound 50, trans-3-fluoro-5-((S)-2-(4-((5-fluoro-2-methyl-1H-benzo[d]imidazol-1-yl)methyl)cyclohexane-1-carbonyl)isoxazolidin-3-yl)benzonitrile], the IC50 in assay [1] is 27 nM; with U937 cells, 29 nM.
On to `Cc1cn2ncc(C[C@H]3CC[C@H](C(=O)N4OCC[C@H]4c4cccc(C#N)c4)CC3)cc2n1` [compound 322, [2-cyano-4-[(3S)-2-[4-[(2-methylimidazo[1,2-b]pyridazin-7-yl)methyl]cyclohexanecarbonyl]isoxazolidin-3-yl]phenyl]], for which the values for the IC50 (in assay [1]; in the assay on U937 cells) were 37 nM and 27 nM, respectively.
For `N#Cc1cc(F)cc([C@@H]2CCON2C(=O)[C@H]2CC[C@H](Cn3ncc4c(F)cc(C#N)cc43)CC2)c1` [compound 32, trans-1-((4-((S)-3-(3-cyano-5-fluorophenyl)isoxazolidine-2-carbonyl)cyclohexyl)methyl)-4-fluoro-1H-indazole-6-carbonitrile] the same measures were 19 nM and 3 nM.
Turning to `Cc1ccc(CC23CCC(C(=O)N4OCC[C@H]4c4cc(F)cc(C#N)c4)(CC2)CC3)cc1C(N)=O` [compound 274, 5-[[4-[(3S)-3-(3-cyano-5-fluoro-phenyl)isoxazolidine-2-carbonyl]-1-bicyclo[2.2.2]octanyl]methyl]-2-methyl-benzamide], the IC50 in assay [1] turned out to be 9 nM; in the assay on U937 cells, 40 nM.
For `N#Cc1cc(F)cc([C@@H]2CCON2C(=O)[C@H]2CC[C@H](Cn3ccc4ncc(C#N)cc43)CC2)c1` [compound 2, trans-1-((4-((S)-3-(3-cyano-5-fluorophenyl)isoxazolidine-2-carbonyl)cyclohexyl)methyl)-1H-pyrrolo[3,2-b]pyridine-6-carbonitrile] the same measures were 33 nM and 9 nM.
For `COc1cncc([C@@H]2CCON2C(=O)[C@H]2CC[C@H](Cc3ccc(C)c(C(N)=O)c3)CC2)n1` [compound 166, trans-5-[[4-[(3S)-3-(6-methoxypyrazin-2-yl)isoxazolidine-2-carbonyl]cyclohexyl]methyl]-2-methyl-benzamide], the IC50 in assay [1] is 8 nM; with U937 cells, 50 nM.
As for `O=C([C@H]1CC[C@H](Cc2ccc3ncnn3c2)CC1)N1OCC[C@H]1c1cncc(F)c1` [compound 338, trans-[(3S)-3-(5-fluoropyridin-3-yl)-1,2-oxazolidin-2-yl]-[4-([1,2,4]triazolo[1,5-a]pyridin-6-ylmethyl)cyclohexyl]methanone], the IC50 in assay [1] was 29 nM; with U937 cells, 45 nM.
Regarding `Cc1nc([C@@H]2CCON2C(=O)[C@H]2CC[C@H](Cc3ccc4nnc(C)n4c3C)CC2)cs1` [compound 375, [4-(3,5-Dimethyl-[1,2,4]triazolo[4,3-a]pyridin-6-ylmethyl)-cyclohexyl]-[(S)-3-(2-methyl-thiazol-4-yl)-isoxazolidin-2-yl]-methanone], the IC50 in assay [1] was determined as 63 nM; in the assay with U937 cells it was 10 nM.
The matching figures for `Cc1ccc([C@@H]2CCON2C(=O)[C@H]2CC[C@H](Cc3ccc4nnc(C)n4c3C)CC2)cn1` [compound 376, [4-(3,5-Dimethyl-[1,2,4]triazolo[4,3-a]pyridin-6-ylmethyl)-cyclohexyl]-[(S)-3-(6-methyl-pyridin-3-yl)-isoxazolidin-2-yl]-methanone]: 75 nM and 90 nM.
For the molecule `Cc1ccc([C@@H]2CCON2C(=O)[C@H]2CC[C@H](Cn3ncc4cc(C#N)c(F)cc43)CC2)cn1` [compound 298, 6-fluoro-1-[[trans-4-[(3S)-3-(6-methyl-3-pyridyl)isoxazolidine-2-carbonyl]cyclohexyl]methyl]indazole-5-carbonitrile], the concentration for half-maximal inhibition (IC50) worked out at 20 nM in assay [1] and 6 nM in the assay with U937 cells.
In the case of `Cc1cc(C[C@H]2CC[C@H](C(=O)N3OCC[C@H]3c3csc(C)n3)CC2)c(C)cn1` [compound 366, trans-[4-(2,5-Dimethyl-pyridin-4-ylmethyl)-cyclohexyl]-[(S)-3-(2-methyl-thiazol-4-yl)-isoxazolidin-2-yl]-methanone], the IC50 amounted to 40 nM in assay [1] and 11 nM with U937 cells.
As for `Cn1nccc1-c1cc(F)cc(C[C@H]2CC[C@H](C(=O)N3OCC[C@H]3c3cc(F)cc(C#N)c3)CC2)c1` [compound 214, trans-3-fluoro-5-[(3S)-2-[4-[[3-fluoro-5-(2-methylpyrazol-3-yl)phenyl]methyl]cyclohexanecarbonyl]isoxazolidin-3-yl]benzonitrile], the IC50 in assay [1] came to 20 nM; in the assay on U937 cells, 4 nM.
Take `Cc1ncc(F)cc1C[C@H]1CC[C@H](C(=O)N2OCC[C@H]2c2cc(F)cc(F)c2)CC1` [compound 182, trans-[(3S)-3-(3,5-difluorophenyl)isoxazolidin-2-yl]-[4-[(5-fluoro-2-methyl-3-pyridyl)methyl]cyclohexyl]methanone]: the results for the half-maximal inhibitory concentration (IC50) (in assay [1]; with U937 cells) were 22 nM and 1 nM, respectively.
Turning to `Cc1cncc([C@@H]2CCON2C(=O)[C@H]2CC[C@H](Cc3cc(F)c4nc(C)nn4c3)CC2)c1` [compound 333, trans-[4-[(8-fluoro-2-methyl-[1,2,4]triazolo[1,5-a]333yrdine-6-yl)methyl]cyclohexyl]-[(3S)-3-(5-methylpyridin-3-yl)-1,2-oxazolidin-2-yl]methanone], the IC50 in assay [1] turned out to be 30 nM; in the assay with U937 cells, 55 nM.
For `Cc1cn2cc(C[C@H]3CC[C@H](C(=O)N4OCC[C@H]4c4cc(F)cc(F)c4)CC3)cc(F)c2n1` [compound 281, trans-[(3S)-3-(3,5-difluorophenyl)isoxazolidin-2-yl]-[4-[(8-fluoro-2-methyl-imidazo[1,2-a]pyridin-6-yl)methyl]cyclohexyl]methanone] the same measures were 19 nM and 5 nM.
For `Cc1cn2nc(C[C@H]3CC[C@H](C(=O)N4OCC[C@H]4c4cc(F)cc(C#N)c4)CC3)c(C)cc2n1` [compound 292, trans-3-[(3S)-2-[4-[(2,7-dimethylimidazo[1,2-b]pyridazin-6-yl)methyl]cyclohexanecarbonyl]isoxazolidin-3-yl]-5-fluoro-benzonitrile] the same measures were 14 nM and 4 nM.
For the molecule `Cc1nn(C[C@H]2CC[C@H](C(=O)N3OCC[C@H]3c3cc(F)cc(F)c3)CC2)c2cc(C#N)c(F)cc12` [compound 84], the 50% inhibitory concentration (IC50) came out at 13 nM in assay [1] and 4 nM in the assay on U937 cells.
The matching figures for `Cc1c(C#N)ncn1C[C@H]1CC[C@H](C(=O)N2OCC[C@H]2c2cc(F)cc(C#N)c2)CC1` [compound 90, trans-1-((4-((S)-3-(3-cyano-5-fluorophenyl)isoxazolidine-2-carbonyl)cyclohexyl)methyl)-5-methyl-1H-imidazole-4-carbonitrile]: 75 nM and 147 nM.
For `Cn1nccc1C[C@H]1CC[C@H](C(=O)N2OCC[C@H]2c2cc(F)cc(F)c2)CC1` [compound 307, trans-[(3S)-3-(3,5-difluorophenyl)isoxazolidin-2-yl]-[4-[(2-methylpyrazol-3-yl)methyl]cyclohexyl]methanone], the values for the half-inhibitory concentration (IC50) (in assay [1]; in the assay with U937 cells) were 15 nM and 2 nM, respectively.
`Cc1cc(C)n(-c2cc(C[C@H]3CC[C@H](C(=O)N4OCC[C@H]4c4cc(F)cc(F)c4)CC3)ncn2)n1` [compound 125, trans-[(3S)-3-(3,5-difluorophenyl)isoxazolidin-2-yl]-[4-[[6-(3,5-dimethylpyrazol-1-yl)pyrimidin-4-yl]methyl]cyclohexyl]methanone]: the IC50 in assay [1] was found to be 9 nM; in the assay on U937 cells, 16 nM.
The matching figures for `COc1cncc([C@@H]2CCON2C(=O)[C@H]2CC[C@H](Cn3cc4ccc(C#N)cc4n3)CC2)n1` [compound 189, trans-2-[[4-[(3S)-3-(6-methoxypyrazin-2-yl)isoxazolidine-2-carbonyl]cyclohexyl]methyl]indazole-6-carbonitrile]: 138 nM and 623 nM.

The values above are taken from patent publication US20260158009A1 (GENZYME CORPORATION, priority 2023, published 2026).
